Read-outs that look alike come from different tables or passages of the source.
Assays:
[1] = target: T1, CCK-A receptor (Pancreas) (Rattus norvegicus, UniProt P30551); experiment: Binding to CCK receptor, pancreas membranes, inhibition of 125I-CCK-8 specific binding
T1 construct: Whole pancreas was removed from male Wister rats; from tissue; host or cells: rat pancreas membranes (male Wistar rats)
T1 sequence (P30551 1-444): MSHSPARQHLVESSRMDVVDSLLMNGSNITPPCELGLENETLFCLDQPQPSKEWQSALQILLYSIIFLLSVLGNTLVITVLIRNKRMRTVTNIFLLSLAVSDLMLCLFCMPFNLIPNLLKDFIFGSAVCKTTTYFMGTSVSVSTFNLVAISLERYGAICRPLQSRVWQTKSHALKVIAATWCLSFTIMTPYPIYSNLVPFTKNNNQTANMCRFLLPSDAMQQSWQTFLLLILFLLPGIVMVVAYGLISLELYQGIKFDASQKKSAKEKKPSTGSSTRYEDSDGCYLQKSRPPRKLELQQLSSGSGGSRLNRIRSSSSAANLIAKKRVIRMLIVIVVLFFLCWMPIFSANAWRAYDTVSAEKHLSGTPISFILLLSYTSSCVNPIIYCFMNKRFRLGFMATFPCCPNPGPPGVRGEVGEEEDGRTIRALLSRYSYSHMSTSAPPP
Description: (§1) Whole pancreas was removed from male Wister rats. Fat tissue was removed and the pancreas was homogenized (Blinkman Polytron PT20) in 10 mM MES buffer (0.02% Bacitracin, 0.02% soy bean-derived trypsin inhibitor, 0.0001% phenylmethanesulfonyl fluoride, pH 6.5). The homogenate was passed through a nylon cloth (120 mesh) and the filtrate was centrifuged at 40,000×g for 15 minutes. The obtained sediment was homogenized in Tris buffer and centrifuged in the same manner as above. The sediment was suspended in a buffer for binding assay (50 mM MES containing 130 mM sodium chloride, 4.7 mM potassium chloride, 5 mM magnesium chloride, 0.02% Bacitracin, 0.0001% phenylmethanesulfonyl fluoride, pH 6.5) and used as a peripheral receptor source. In the case of central tissue, rat cerebral cortex was used for the preparation by suspending same in a buffer (pH 6.5) containing 5 mM magnesium chloride, 1 mM EGTA [ethylene glycol bis(2-aminoethylether)tetraacetic acid], 360 mM sodium chloride, 15 mM potassium chloride, 20 mM HEPES (N-2-hydroxyethylpiperazine-N'-2-ethanesulfonic acid) and 0.25 mg/ml Bacitracin. For binding assay, 50 μl buffer (for total binding use) and unlabelled CCK-8 sulfate (for non-specific binding) having a final concentration of 1 μM or a test compound (^125 I-CCK-8, 63-67 TBq/mmol, 40,000-50,000 cpm, 50 μl) were added to a membrane suspension (450 μl, containing 100 μg as protein). The reaction mixture was incubated at 20° C. for 30 minutes and filtered through a glass fiber filter (Whatman G/FB) by suction. Immediately thereafter, the filter was washed three times with ice-cold Tris buffer (2.5 ml) and the radioactivity on the filter was determined.
(§2) The effects of the test compound on the CCK receptor binding were evaluated by the concentration (IC50, nM) necessary for inhibiting the specific binding by 50%, which was obtained by calculating the inhibition ratio by the following formula: [formula]
(§3) The results of the effects of the test compounds on the CCK receptor binding are shown in the following

[2] = target: T2, CCK-B receptor (Brain) (Rattus norvegicus, UniProt P30553); experiment: Binding to CCK receptor, cerebral cortex membranes, inhibition of 125I-CCK-8 specific binding; settings: pH 6.5, 20° C., 30 minutes
T2 construct: from tissue; host or cells: rat cerebral cortex membranes
T2 sequence (P30553 1-452): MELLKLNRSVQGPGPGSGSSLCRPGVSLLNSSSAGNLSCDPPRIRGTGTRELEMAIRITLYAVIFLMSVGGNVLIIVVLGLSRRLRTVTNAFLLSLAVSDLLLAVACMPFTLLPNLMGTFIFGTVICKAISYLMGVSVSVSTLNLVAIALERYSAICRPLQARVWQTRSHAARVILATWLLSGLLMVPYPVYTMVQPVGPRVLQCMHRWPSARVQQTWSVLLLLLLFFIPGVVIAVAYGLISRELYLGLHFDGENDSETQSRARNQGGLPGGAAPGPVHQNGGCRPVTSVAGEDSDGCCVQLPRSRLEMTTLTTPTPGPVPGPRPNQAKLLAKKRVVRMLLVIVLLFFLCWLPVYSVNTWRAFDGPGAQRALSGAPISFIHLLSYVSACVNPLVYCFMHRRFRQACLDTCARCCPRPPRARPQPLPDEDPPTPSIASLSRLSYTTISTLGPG
Description: as §1, §2, §3

[3] = system: CCK-8-induced secretion of pancreatic juice (trypsin secretion); experiment: Effects on CCK-induced secretion of pancreatic juice in guinea pig under anesthesia; type: in vivo; settings: 300 μg/kg intravenous, 5 minutes before second CCK-8 (0.1 μg/kg i.v.); male guinea pigs under urethane anesthesia
Description: Effects on CCK-induced secretion of pancreatic juice in guinea pig under anesthesia
Male guinea pigs weighing about 650 g were anesthetized by subcutaneous administration of urethane (1.6 g/kg), and a cannula for injection of perfusing solution was inserted into the pyloric part of stomach and a discharge cannula was inserted at a position 2 cm distal from Treitz ligament. Duodenum was perfused with physiological saline at a rate of 8 ml/15 min, and trypsin secretion in the perfusate was determined. For the determination, Na-benzoyl-arginine p-nitroanilide (BAPNA) was used as a synthetic substrate and spectrophotometer was used for the determination. Secretion of pancreatic juice was induced by an intravenous administration of CCK-8 (0.1 μg/kg), and 60 minutes later, CCK-8 was administered again. The inhibition ratio of the test compound which was intravenously administered at 5 minutes before the second administration of CCK-8 was calculated by the following formula: [formula]
The effects of the test compounds on inhibition of secretion of pancreatic juice induced by CCK receptor in guinea pig under anesthesia are shown in the following

[4] = rat pancreas membranes, 125I-CCK-8, pH 6.5, 20° C., 30 minutes, read-out: Pancreas (CCK-A) IC50

SMILES	IC50 [1, 4]	IC50 [2]	Inhibition of CCK-8-induced secretion of pancreatic juice [3]	IC50 [1]
CCc1cc2c(s1)-n1c(nnc1CNC(=O)c1ccc(Cl)c(Cl)c1)CN=C2c1ccccc1Cl [Example 59, N-(4-(2-chlorophenyl)-2-ethyl-6H-thieno[3,2-f] [1,2,4]triazolo[4,3-a] [1,4]diazepin-9-ylmethyl)-3,4-dichlorobenzamide]	–	> 1000 nM	–	13 nM
Cc1nnc(CNC(=O)c2cc3ccccc3[nH]2)n1-c1sc(C(=O)O)cc1C(=O)c1ccccc1Cl [Example 252, (3-(2-chlorobenzoyl)-2-(3-(2-indolecarbonylaminomethyl)-5-methyl[1,2,4]triazol-4-yl)thiophen-5-yl)carboxylic acid]	6.6 nM	> 1000 nM	82.6 ± 2.6%	–
CCc1cc2c(s1)-n1c(nnc1[C@@H](CCC(=O)O)NC(=O)c1ccc(Cl)c(Cl)c1)CN=C2c1ccccc1Cl [Example 277, (R)-(-)-4-(3,4-dichlorobenzoylamino)-4-(4-(2-chlorophenyl)-2-ethyl-6H-thieno[3,2-f] [1,2,4]triazolo[4,3-a] [1,4]diazepin-9-yl)butanoic acid]	–	> 1000 nM	85.1 ± 12.1%	9.6 nM
CCc1cc2c(s1)-n1c(nnc1[C@@H](CCC(=O)O)NC(=O)c1cc3ccccc3[nH]1)CN=C2c1ccccc1Cl [Example 280, (R)-(-)-4-(4-(2-chlorophenyl)-2-ethyl-6H-thieno[3,2-f] [1,2,4]triazolo[4,3-a] [1,4]diazepin-9-yl)-4-(1H-indole-2-carboxamide)butanoic acid]	–	> 1000 nM	78.1 ± 7.6%	2.7 nM
CCc1cc(C(=O)c2ccccc2Cl)c(-n2c(C)nnc2CNC(=O)c2ccc(Cl)cc2N)s1 [Example 338, 2-amino-4-chloro-N-(4-(3-(2-chlorobenzoyl)-5-ethylthiophen-2-yl)-5-methyl[1,2,4]triazol-3-ylmethyl)benzamide]	7.6 nM	> 1000 nM	–	–

Now from value to molecule, other results behind:

IC50 [1, 4]	IC50 [2]	SMILES	Inhibition of CCK-8-induced secretion of pancreatic juice [3]	IC50 [1]
7.5 nM	> 1000 nM	CCc1cc(C(=O)c2ccccc2Cl)c(-n2c(C)nnc2CNC(=O)c2ccc(Cl)c(Cl)c2)s1 [Example 11, N-(4-(3-(2-chlorobenzoyl)-5-ethylthiophen-2-yl)-5-methyl[1,2,4]triazol-3-ylmethyl)-3,4-dichlorobenzamide]	–	–
3.7 nM	> 1000 nM	CCc1cc(C(=O)c2ccccc2Cl)c(-n2c(C)nnc2CNC(=O)c2cc3ccccc3[nH]2)s1 [Example 14, N-(4-(3-(2-chlorobenzoyl)-5-ethylthiophen-2-yl)-5-methyl[1,2,4]triazol-3-ylmethyl)indole-2-carboxamide]	–	–
10.6 nM	> 1000 nM	CCc1cc(C(=O)c2ccccc2Cl)c(-n2c(C)nnc2CNC(=O)c2cc3ccccc3n2CC(=O)O)s1 [Example 19, 2-(4-(3-(2-chlorobenzoyl)-5-ethylthiophen-2-yl)-5-methyl[1,2,4]triazol-3-ylmethylcarbamoyl)indole-1-acetic acid]	81.9 ± 5.9%	–
5.6 nM	> 1000 nM	CCc1cc(C(=O)c2ccccc2Cl)c(-n2c(C)nnc2CNC(=O)Nc2cccc(C)c2)s1 [Example 26, N-(4-(3-(2-chlorobenzoyl)-5-ethylthiophen-2-yl)-5-methyl[1,2,4]triazol-3-ylmethyl)-N'-(3-methylphenyl)urea]	–	–
4.8 nM	> 1000 nM	CCc1cc(C(=O)c2ccccc2Cl)c(-n2c(C)nnc2CNC(=O)Nc2cccc(OC)c2)s1 [Example 27, N-(4-(3-(2-chlorobenzoyl)-5-ethylthiophen-2-yl)-5-methyl[1,2,4]triazol-3-ylmethyl)-N'-(3-methoxyphenyl)urea]	–	–
3.2 nM	> 1000 nM	CCc1cc(C(=O)c2ccccc2Cl)c(-n2c(Br)nnc2CNC(=O)c2cc3ccccc3[nH]2)s1 [Example 72, N-(3-bromo-4-(3-(2-chlorobenzoyl)-5-ethylthiophen-2-yl) [1,2,4]triazol-5-ylmethyl)indole-2-carboxamide]	–	–
